According to patent publication US11155525B2 (Sanford Burnham Prebys Medical Discovery Institute, priority 2015, dated 2021):

Biological target: T1, human apelin receptor (Homo sapiens, UniProt P35414)
T1 construct: host or cells: CHO cells
T1 sequence (P35414 1-380): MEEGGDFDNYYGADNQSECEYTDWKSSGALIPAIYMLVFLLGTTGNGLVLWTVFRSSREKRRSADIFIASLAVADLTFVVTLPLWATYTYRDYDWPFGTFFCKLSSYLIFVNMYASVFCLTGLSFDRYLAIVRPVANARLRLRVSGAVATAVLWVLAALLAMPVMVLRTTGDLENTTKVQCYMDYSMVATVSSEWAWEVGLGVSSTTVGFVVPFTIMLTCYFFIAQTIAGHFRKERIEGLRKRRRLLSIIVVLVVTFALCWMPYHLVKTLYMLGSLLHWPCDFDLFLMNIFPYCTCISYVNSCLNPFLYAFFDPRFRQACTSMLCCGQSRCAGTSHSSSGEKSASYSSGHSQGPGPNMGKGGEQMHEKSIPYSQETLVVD
Assay: Measurement of apelin receptor agonist activity (cell-based assay determining the amount of intracellular cAMP)
Details: CHO cells stably expressing the human apelin receptor, Forskolin 10 μM, 30 minutes, 100% efficacy = [Pyr1]-apelin-13 0.300 μM, concentration giving 50% efficacy
Protocol: Measurement of Apelin Receptor Agonist Activity
The apelin receptor agonist activity of the compound represented by formula (I) or (II) of the present invention was measured by cell-based assay for determining the amount of intracellular cAMP.
CHO cells (DiscoveRx Corp.) stably expressing the human apelin receptor were inoculated to wells of a microtiter plate and cultured overnight at 37° C. under conditions of 5% CO2.
Each test compound and Forskolin were added to the wells at the same time. Specifically, the test compound dissolved in DMSO was diluted with a Forskolin-containing buffer [DMEM/F-12, HEPES, no phenol red (#11039, GIBCO)] to prepare a mixed solution containing the test compound at a final concentration of […] (common ratio: 3, serial dilution: 11), Forskolin at a final concentration of 10 μM, and DMSO at a final concentration of 0.3% v/v, which was then added to the wells (N═4).
After 30 minutes, the cells were lysed, and HitHunter cAMP XS+ Assay #90-0075L (DiscoveRx Corp.) was added to the cell lysate. The mixture was left overnight, and the resulting chemiluminescence signals were then detected using Analyst GT (Molecular Devices LLC.) to determine the amount of cAMP.
The amount of cAMP determined by the addition of a positive control [Pyr1]-apelin-13 (final concentration: 0.300 μM) and Forskolin (final concentration: 10 μM) at the same time was used as an index to define 100% efficacy. The amount of cAMP determined by the addition of Forskolin (final concentration: 10 μM) alone was used as an index to define 0% efficacy.
A dose response curve was prepared from the final concentration of the test compound and the determined amount of cAMP using Sigmaplot 12.0.

| SMILES | EC50 |
| --- | --- |
| COc1cccc(OC)c1-n1c(/C=C/C(=O)O)nnc1-c1ccc(C)o1 [Example 65, Sodium (2E)-3-[4-(2,6-dimethoxyphenyl)-5-(5-methylfuran-2-yl)-4H-1,2,4-triazol-3-yl]prop-2-enoate] | 75 nM |
| CCOC(=O)COCc1nnc(-c2ccc(C)o2)n1-c1c(OC)cccc1OC [Example 66, Ethyl {[4-(2,6-dimethoxyphenyl)-5-(5-methylfuran-2-yl)-4H-1,2,4-triazol-3-yl]methoxy}acetate] | 817 nM |
| COc1cccc(OC)c1-n1c(COCC(=O)O)nnc1-c1ccc(C)o1 [Example 67, {[4-(2,6-Dimethoxyphenyl)-5-(5-methylfuran-2-yl)-4H-1,2,4-triazol-3-yl]methoxy}acetic acid] | 774 nM |
| COc1cccc(OC)c1-n1c(CSc2nnc[nH]2)nnc1-c1ccc(C)o1 [Example 68, 4-(2,6-Dimethoxyphenyl)-3-(5-methylfuran-2-yl)-5-[(4H-1,2,4-triazol-3-ylsulfanyl)methyl]-4H-1,2,4-triazole] | 1330 nM |
| COc1cccc(OC)c1-n1c(CS(=O)(=O)c2nnc[nH]2)nnc1-c1ccc(C)o1 [Example 69] | 696 nM |
| COc1cccc(OC)c1-n1c(CN)nnc1-c1ccc(C)o1 [Example 70, 1-[4-(2,6-Dimethoxyphenyl)-5-(5-methylfuran-2-yl)-4H-1,2,4-triazol-3-yl]methanamine] | 384 nM |
| COc1cccc(OC)c1-n1c(CNS(C)(=O)=O)nnc1-c1ccc(C)o1 [Example 71, N-{[4-(2,6-Dimethoxyphenyl)-5-(5-methylfuran-2-yl)-4H-1,2,4-triazol-3-yl]methyl}methanesulfonamide] | 1070 nM |
| COc1cccc(OC)c1-n1c(CN(C(=O)c2ccc(C)cc2)C(=O)c2ccc(C)cc2)nnc1-c1ccc(C)o1 [Example 72, N-{[4-(2,6-Dimethoxyphenyl)-5-(5-methylfuran-2-yl)-4H-1,2,4-triazol-3-yl]methyl}-4-methyl-N-(4-methylbenzoyl)benzamide] | 95 nM |
| COc1cccc(OC)c1-n1c(CC#N)nnc1-c1ccc(C)o1 [Example 73, [4-(2,6-Dimethoxyphenyl)-5-(5-methylfuran-2-yl)-4H-1,2,4-triazol-3-yl]acetonitrile] | 1020 nM |
| COc1cccc(OC)c1-n1c(SCc2nnn[nH]2)nnc1-c1ccc(C)o1 [Example 74, 5-({[4-(2,6-Dimethoxyphenyl)-5-(5-methylfuran-2-yl)-4H-1,2,4-triazol-3-yl]sulfanyl}methyl)-1H-tetrazole] | 98 nM |
| COc1cccc(OC)c1-n1c(SCc2cccnn2)nnc1-c1ccc(C)o1 [Example 75, 3-({[4-(2,6-Dimethoxyphenyl)-5-(5-methylfuran-2-yl)-4H-1,2,4-triazol-3-yl]sulfanyl}methyl)pyridazine] | 128 nM |
| COc1cccc(OC)c1-n1c(SCc2nccs2)nnc1-c1ccc(C)o1 [Example 76, 4-(2,6-Dimethoxyphenyl)-3-(5-methylfuran-2-yl)-5-[(1,3-thiazol-2-ylmethyl)sulfanyl]-4H-1,2,4-triazole] | 158 nM |
| COC(=O)c1ccccc1CSc1nnc(-c2ccc(C)o2)n1-c1c(OC)cccc1OC [Example 77, Methyl 2-({[4-(2,6-dimethoxyphenyl)-5-(5-methylfuran-2-yl)-4H-1,2,4-triazol-3-yl]sulfanyl}methyl)benzoate] | 557 nM |
| COc1cccc(OC)c1-n1c(SCc2ccccc2C(=O)O)nnc1-c1ccc(C)o1 [Example 78, 2-({[4-(2,6-Dimethoxyphenyl)-5-(5-methylfuran-2-yl)-4H-1,2,4-triazol-3-yl]sulfanyl}methyl)benzoic acid] | 34 nM |
| COC(=O)c1cccc(CSc2nnc(-c3ccc(C)o3)n2-c2c(OC)cccc2OC)c1 [Example 79, Methyl 3-({[4-(2,6-dimethoxyphenyl)-5-(5-methylfuran-2-yl)-4H-1,2,4-triazol-3-yl]sulfanyl}methyl)benzoate] | 208 nM |
| COc1cccc(OC)c1-n1c(SCc2cccc(C(=O)O)c2)nnc1-c1ccc(C)o1 [Example 80, 3-({[4-(2,6-Dimethoxyphenyl)-5-(5-methylfuran-2-yl)-4H-1,2,4-triazol-3-yl]sulfanyl}methyl)benzoic acid] | 1530 nM |
| COC(=O)c1ccc(CSc2nnc(-c3ccc(C)o3)n2-c2c(OC)cccc2OC)cc1 [Example 81, Methyl 4-({[4-(2,6-dimethoxyphenyl)-5-(5-methylfuran-2-yl)-4H-1,2,4-triazol-3-yl]sulfanyl}methyl)benzoate] | 71 nM |
| COc1cccc(OC)c1-n1c(SCc2ccc(C(=O)O)cc2)nnc1-c1ccc(C)o1 [Example 82, 4-({[4-(2,6-Dimethoxyphenyl)-5-(5-methylfuran-2-yl)-4H-1,2,4-triazol-3-yl]sulfanyl}methyl)benzoic acid] | 5460 nM |
| COc1cccc(OC)c1-n1c(SCC(N)=O)nnc1-c1ccc(C)o1 [Example 83, 2-{[4-(2,6-Dimethoxyphenyl)-5-(5-methylfuran-2-yl)-4H-1,2,4-triazol-3-yl]sulfanyl}acetamide] | 219 nM |
| COc1cccc(OC)c1-n1c(SCC#N)nnc1-c1ccc(C)o1 [Example 84, {[4-(2,6-Dimethoxyphenyl)-5-(5-methylfuran-2-yl)-4H-1,2,4-triazol-3-yl]sulfanyl}acetonitrile] | 267 nM |
| COc1cccc(OC)c1-n1c(SC)nnc1-c1ccc(C)o1 [Example 85, 4-(2,6-Dimethoxyphenyl)-3-(5-methylfuran-2-yl)-5-(methylsulfanyl)-4H-1,2,4-triazole] | 253 nM |
| COc1cccc(OC)c1-n1c(-c2ccc(C)o2)nnc1S(C)(=O)=O [Example 86, 4-(2,6-Dimethoxyphenyl)-3-(5-methylfuran-2-yl)-5-(methylsulfonyl)-4H-1,2,4-triazole] | 2020 nM |
| COc1cccc(OC)c1-n1c(OCC(OC)OC)nnc1-c1ccc(C)o1 [Example 87, 3-(2,2-Dimethoxyethoxy)-4-(2,6-dimethoxyphenyl)-5-(5-methylfuran-2-yl)-4H-1,2,4-triazole] | 744 nM |
| COc1cccc(OC)c1-n1c(OCC(=O)O)nnc1-c1ccc(C)o1 [Example 88, {[4-(2,6-Dimethoxyphenyl)-5-(5-methylfuran-2-yl)-4H-1,2,4-triazol-3-yl]oxy}acetic acid] | 35 nM |
| COC(=O)[C@@H]1CCCN1C(=O)/C=C/c1nnc(-c2ccc(C)o2)n1-c1c(OC)cccc1OC [Example 90, Methyl 1-{(2E)-3-[4-(2,6-dimethoxyphenyl)-5-(5-methylfuran-2-yl)-4H-1,2,4-triazol-3-yl]prop-2-enoyl}-L-prolinate] | 503 nM |
| COC(=O)[C@@H]1C[C@@H](O)CN1C(=O)/C=C/c1nnc(-c2ccc(C)o2)n1-c1c(OC)cccc1OC [Example 91, Methyl (4R)-1-{(2E)-3-[4-(2,6-dimethoxyphenyl)-5-(5-methylfuran-2-yl)-4H-1,2,4-triazol-3-yl]prop-2-enoyl}-4-hydroxy-L-prolinate] | 351 nM |
| COc1cccc(OC)c1-n1c(/C=C/C(=O)N2C[C@H](O)C[C@H]2C(=O)O)nnc1-c1ccc(C)o1 [Example 92, (4R)-1-{(2E)-3-[4-(2,6-Dimethoxyphenyl)-5-(5-methylfuran-2-yl)-4H-1,2,4-triazol-3-yl]prop-2-enoyl}-4-hydroxy-L-proline] | 166 nM |
